Measured values from patent publication US10105365B2, “Solid antiviral dosage forms” (AbbVie Inc., priority 2014, dated 2018).

How the values were obtained:
[1] = Human pharmacokinetic study, Example 5 Arm I (single dose, replicated crossover); assay type: in vivo
Experimental: (§1) A Phase 1, non-fasting, open-label, two-arm, four-period, randomized, crossover study was conducted to compare and characterize the pharmacokinetics of (i) Triple Tablet when co-administered with Single Tablet, and (ii) Formulation C5-12 as discussed below. Part 1 was a single dose, two-treatment, randomized, four period, two sequence replicated crossover study with 88 subjects. Doses in the four periods were separated by at least 10 days. Part 2 was a multiple-dose, two-treatment, two period, randomized crossover study with 66 subjects. Dosing in each period was 14 days and doses in the two periods were separated by at least 10 days.
(§2) Adult male and female subjects in general good health were selected to participate in the study according to the selection criteria. Subjects meeting the selection criteria were randomly assigned to one of the sequences of Regimens A and B (four sequences for Arm I and two sequences for Arm II) as shown below in Table 5-A.
(§3) Study drug was administered as provided below in Table 5-B.
(§4) Each study regimen was taken orally with approximately 240 mL of water approximately 30 minutes after the start of standardized breakfast. Study regimens were administered orally in the morning on Study Day 1 of each period. Serial blood samples for pharmacokinetic analysis were collected 72 hours after dosing in each period.
Tables 5-C, 5-D, 5-E, and 5-F below report the Arm I pharmacokinetic data for Formulation C5-12 (separately reported for each of Compounds 1, 2, 3, and 4). Table 5-G presents the results of a relative bioavailability and 90% confidence interval analysis of the pharmacokinetic data for Formulation C5-12 relative to the reference regimen. The data presented in Tables 5-C through 5-G are preliminary data and are subject to database lock and final data verification by the statistician.

[2] = Sink Conditions dissolution testing of Formulation C5-12; assay type: physicochemical; conditions: N = 6
Experimental: The release profiles of Formulation C5-12 of Example 1 were evaluated in a Sink Conditions dissolution study. The study was conducted in 900 mL of dissolution medium using a standard USP dissolution Apparatus 2 (paddle) operating at 100 RPM at 37±0.5° C. The dissolution medium was a 0.05 M sodium phosphate buffer pH 6.8 with 15 mM cTAB as a surfactant.

[3] = Human pharmacokinetic study, Example 5 Arm II (multiple dose, crossover); assay type: in vivo; conditions: Example 5 Arm II; for AUC: read-out: AUC24, geometric mean; for concentration at 24 h: read-out: C24, geometric mean; for Cmax: read-out: Cmax, geometric mean
Experimental: as §1, §2, §3, §4

[4] = Human pharmacokinetic study, Example 4 Arm III (14-day multiple dose, steady state); assay type: in vivo
[5] = Solubility (general statement); assay type: physicochemical; conditions: aqueous
[6] = Human pharmacokinetic study, Example 4 Arm II (single dose, crossover); assay type: in vivo; conditions: both sexes, human, oral, Example 4 Arm II, single dose, non-fasting, N = 13; for half-life / AUC(0-t) / AUC(0-inf) / Tmax: blood; for AUC(0-t): read-out: AUCt, geometric mean; for AUC(0-inf): read-out: AUC∞, geometric mean; for Tmax: read-out: Tmax; for concentration at 24 h / Cmax: in vivo; for concentration at 24 h: read-out: C24, geometric mean; for Cmax: read-out: Cmax, geometric mean
Experimental: Formulation C5-12 and a second formulation were tested in Arm II of the study. Adult male and female subjects (N=30 for combined Arm I and Arm II studies) in general good health were selected to participate in the study according to the selection criteria. Subjects meeting the selection criteria were randomly assigned to one of the Regimen sequences as shown below in Table 4-A.
Study drug was administered as provided below in Table 4-B.
Each study regimen was taken orally with approximately 240 mL of water approximately 30 minutes after the start of standardized breakfast. Study regimens were administered orally in the morning on Study Day 1 of each period. For Regimen A the evening dose of the Single Tablet was taken orally with approximately 240 mL of water approximately 30 minutes after the start of the evening snack. Serial blood samples for pharmacokinetic analysis were collected 72 hours after dosing in each period.
The data presented in Tables 4-C through 4-G are preliminary data and are subject to database lock and final data verification.

[7] = Formulation C5-12 relative to the reference regimen
[8] = multiple dose 14 days, non-fasting, Regimen B (reference regimen): two Triple Tablets + one Single Tablet morning, one Single Tablet evening, N = 63
[9] = both sexes, human, blood, oral, 3 film-coated Formulation C5-12 tablets daily, multiple dose 14 days, non-fasting, Regimen A (C5-12): three film-coated Formulation C5-12 tablets daily, N = 63
[10] = both sexes, human, blood, oral, multiple dose 14 days, non-fasting, Regimen B (reference regimen): two Triple Tablets + one Single Tablet morning, one Single Tablet evening, N = 63
[11] = Formulation C5-12, Day 14 versus Day 1
[12] = human, in vivo, oral, 3 Formulation C5-12 tablets daily, three Formulation C5-12 tablets daily for 14 days, non-fasting, Day 14, N = 14
[13] = 3 Formulation C5-12 tablets, Regimen E (C5-12): three Formulation C5-12 tablets in the morning
[14] = Regimen A (reference regimen): two Triple Tablets + one Single Tablet morning, one Single Tablet evening

With `Cc1cnc(C(=O)N[C@H]2CCCCC/C=C\[C@@H]3C[C@@]3(C(=O)NS(=O)(=O)C3CC3)NC(=O)[C@@H]3C[C@@H](Oc4nc5ccccc5c5ccccc45)CN3C2=O)cn1` [Compound 1, (2R,6S,13aS,14aR,16aS,Z)-N-(cyclopropylsulfonyl)-6-(5-methylpyrazine-2-carboxamido)-5,16-dioxo-2-(phenanthridin-6-yloxy)-1,2,3,5,6,7,8,9,10,11,13a,14,14a,15,16,16a-hexadecahydrocyclopropa[e]pyrrolo[1,2-a][1,4]diazacyclopentadecine-14a-carboxamide] the “Cmax lower than Cmax for the reference regimen” value [1, 7] was 30%, the Cmax ([1]; both sexes, human, blood, oral, 3 film-coated Formulation C5-12 tablets, single dose, non-fasting, Regimen A (C5-12): three film-coated Formulation C5-12 tablets, N = 172, read-out: Cmax, geometric mean) was 618 ng/mL and the AUC(0-t) ([1]; both sexes, human, in vivo, oral, 3 film-coated Formulation C5-12 tablets, single dose, non-fasting, Regimen A (C5-12): three film-coated Formulation C5-12 tablets, N = 172, read-out: AUCt, geometric mean) was 4460 ng·h/mL. The AUC(0-inf) ([1]; both sexes, human, in vivo, oral, 3 film-coated Formulation C5-12 tablets, single dose, non-fasting, Regimen A (C5-12): three film-coated Formulation C5-12 tablets, N = 172, read-out: AUC∞, geometric mean) was 4490 ng·h/mL, the Tmax ([1]; both sexes, human, in vivo, oral, 3 film-coated Formulation C5-12 tablets, single dose, non-fasting, Regimen A (C5-12): three film-coated Formulation C5-12 tablets, N = 172, read-out: Tmax, first value (geometric mean)) was 5 h and the half-life ([1]; both sexes, human, in vivo, oral, single dose, non-fasting, Regimen B (reference regimen): two Triple Tablets + one Single Tablet morning, one Single Tablet evening, N = 171) was 6.02 h. The AUC(0-t) ([1]; both sexes, human, in vivo, oral, single dose, non-fasting, Regimen B (reference regimen): two Triple Tablets + one Single Tablet morning, one Single Tablet evening, N = 171, read-out: AUCt, geometric mean) was 5470 ng·h/mL, the AUC(0-inf) ([1]; both sexes, human, in vivo, oral, single dose, non-fasting, Regimen B (reference regimen): two Triple Tablets + one Single Tablet morning, one Single Tablet evening, N = 171, read-out: AUC∞, geometric mean) was 5490 ng·h/mL and the Tmax ([1]; both sexes, human, in vivo, oral, single dose, non-fasting, Regimen B (reference regimen): two Triple Tablets + one Single Tablet morning, one Single Tablet evening, N = 171, read-out: Tmax, first value (geometric mean)) was 5 h. The t1/2 ([1]; single dose, non-fasting, Regimen A (C5-12): three film-coated Formulation C5-12 tablets, N = 172) was 6.15 h, the “Cmax, geometric mean” value ([1]; single dose, non-fasting, Regimen B (reference regimen): two Triple Tablets + one Single Tablet morning, one Single Tablet evening, N = 171) was 935 ng/mL and the “% Released” value ([2]; 1 hour, 900 mL 0.05 M sodium phosphate buffer pH 6.8, 15 mM cTAB, USP Apparatus 2, 100 RPM, 37 °C) was 54%. For the same compound, the “% Released” value ([2]; 4 hours, pH 6.8 buffer, 15 mM cTAB) was 98%, the “% Released” value ([2]; 6 hours, pH 6.8 buffer, 15 mM cTAB) was 99% and the “% Released” value ([2]; 8 hours, pH 6.8 buffer, 15 mM cTAB) was 102%. For the same compound, the “% Released” value ([2]; 12 hours, pH 6.8 buffer, 15 mM cTAB) was 102%, the “% Released” value ([2]; 16 hours, pH 6.8 buffer, 15 mM cTAB) was 101% and the “β, geometric mean” value ([3]; multiple dose 14 days, non-fasting, Regimen A (C5-12): three film-coated Formulation C5-12 tablets daily, N = 63) was 0.129 h⁻¹. The “Tmax, first value (geometric mean)” value [3, 8] was 4.0 h, the “β, geometric mean” value [3, 8] was 0.128 h⁻¹ and the “Exposures (C24,ss and AUC24,ss) versus the reference regimen” value ([3]; Formulation C5-12, point estimate and 90% confidence interval for the GMR within 0.80-1.25) was “bioequivalent”. The “Cmax,ss lower than Cmax,ss for the reference regimen” value [3, 7] was 27%, the half-life [3, 9] was 5.2 h and the AUC [3, 9] was 8900 ng·h/mL. It also gave a concentration at 24 h [3, 9] of 34.6 ng/mL, a Cmax [3, 9] of 1500 ng/mL and a Tmax ([3]; both sexes, human, blood, oral, 3 film-coated Formulation C5-12 tablets daily, multiple dose 14 days, non-fasting, Regimen A (C5-12): three film-coated Formulation C5-12 tablets daily, N = 63, read-out: Tmax, first value (geometric mean)) of 5 h. The half-life [3, 10] was 5.3 h, the AUC [3, 10] was 9240 ng·h/mL and the concentration at 24 h [3, 10] was 30.4 ng/mL. For the same compound, the Cmax [3, 10] was 1950 ng/mL, the bioavailability at 24 h ([3]; both sexes, human, blood, oral, Regimen A (C5-12) vs. B (reference regimen), read-out: Relative bioavailability, C24, point estimate) was 106% and the “AUC24, RATIO” value [4, 11] was 2.28. The “C24, RATIO” value [4, 11] was 1.00, the “Cmax, RATIO” value [4, 11] was 2.52 and the Tmax ([4]; human, in vivo, oral, 3 Formulation C5-12 tablets daily, three Formulation C5-12 tablets daily for 14 days, non-fasting, Day 1, N = 14) was 6.7 h. For the same compound, the AUC ([4]; human, in vivo, oral, 3 Formulation C5-12 tablets daily, three Formulation C5-12 tablets daily for 14 days, non-fasting, Day 1, N = 14, read-out: AUC24, geometric mean) was 4640 ng·h/mL, the concentration at 24 h ([4]; human, in vivo, oral, 3 Formulation C5-12 tablets daily, three Formulation C5-12 tablets daily for 14 days, non-fasting, Day 1, N = 14, read-out: C24, geometric mean) was 33.7 ng/mL and the Cmax ([4]; human, in vivo, oral, 3 Formulation C5-12 tablets daily, three Formulation C5-12 tablets daily for 14 days, non-fasting, Day 1, N = 14, read-out: Cmax, geometric mean) was 651 ng/mL. It also gave a Tmax [4, 12] of 5.1 h, a half-life [4, 12] of 4.6 h and an AUC ([4]; human, in vivo, oral, 3 Formulation C5-12 tablets daily, three Formulation C5-12 tablets daily for 14 days, non-fasting, Day 14, N = 14, read-out: AUC24, geometric mean) of 10600 ng·h/mL. For the same compound, the concentration at 24 h ([4]; human, in vivo, oral, 3 Formulation C5-12 tablets daily, three Formulation C5-12 tablets daily for 14 days, non-fasting, Day 14, N = 14, read-out: C24, geometric mean) was 33.7 ng/mL, the Cmax ([4]; human, in vivo, oral, 3 Formulation C5-12 tablets daily, three Formulation C5-12 tablets daily for 14 days, non-fasting, Day 14, N = 14, read-out: Cmax, geometric mean) was 1640 ng/mL and the β ([4]; three Formulation C5-12 tablets daily for 14 days, non-fasting, Day 14, N = 14) was 0.151 h⁻¹. For the same compound, the Solubility [5] was “low solubility”, the half-life [6, 13] was 5.1 h and the AUC(0-t) [6, 13] was 4310 ng·h/mL. For the same compound, the AUC(0-inf) [6, 13] was 4330 ng·h/mL, the Tmax [6, 13] was 5.7 h and the half-life [6, 14] was 5.2 h. For the same compound, the AUC(0-t) [6, 14] was 4670 ng·h/mL, the AUC(0-inf) [6, 14] was 4690 ng·h/mL and the Tmax [6, 14] was 4.8 h. It also gave a concentration at 24 h [6, 13] of 24.5 ng/mL, a Cmax [6, 13] of 647 ng/mL and a concentration at 24 h [6, 14] of 24.3 ng/mL. For the same compound, the Cmax [6, 14] was 900 ng/mL.
